Data set [1] concerns TNFR1. As to the kind of experiment: Human NP cell CRISPRi: TNFR1 knockdown (qRT-PCR). Type of data set: cell-based. The following applies: primary human NP cells. The procedure: Quantitative RT-PCR was performed to identify TNFR1 knockdown in these primary human NP cells. Additionally, flow-cytometry was performed to determine transduction efficiency in human NP cells.
Background: Quantitative PCR measures a nucleic acid by following its amplification.

The test system of data set [2] is NF-κB activity in HEK293T cells. The experiment in a line: NF-κB activity assay in HEK293T cells dosed with TNF-α. The format is cell-based, human. The method, then:
HEK293T cells and hADMSCs were transduced with the earlier mentioned NF-κB reporter vector and analyzed for changes in NF-κB activity in response to dosing cells with TNF-α/IL-1β (RnD systems, ProSpec). To further describe, cells expressing the NF-κB reporter were plated in white 96-well plates (HEK293T cells at 25,000 cells/well and hADMSCs at 5000 cells/well) and allowed to attach overnight. The next day cells were dosed with the appropriate amounts of inflammatory cytokines (0, […], 1, and/or 10 ng/mL of TNF-α/IL-1β) for 24 hours. At 24 hours luminescence corresponding to NF-κB activity was measured in one set of cells using the bright glo assay (Promega) and cell number was measured on another set of cells under the same treatment using the real-time glo assay (Promega). Changes in NF-κB activity were quantified as a fold change in luminescence relative to the no dose control for each cell type, with NF-κB activity normalized to cell number.

Data set [3] relates to TNFR1. As to the kind of experiment: Guide RNA screening in HEK293T cells (qPCR), TNFR1. The format is cell-based, human. As to conditions: HEK293T cells expressing dCas9-KRAB, 48 hours post transfection, relative to non-target gRNA. An excerpt:
(§1) Using the UCSC genome browser (GRCh37/hg19), the 5-UTR and the promoter region, 1000 base pairs upstream were selected and input into the CRISPR design tool (crispr.mit.edu). This tool outputs 20 bp gRNAs that are followed on their 3′ end by the PAM sequence NGG, which is specific to the CRISPR-Cas9 system derived from Streptococcus pyogenes. Additionally, the CRISPR design tool scores the potential gRNA sequences based on the number of off-target sites they have and how many are within genes (e.g., higher score means less off-target sites). […]
(§2) Total RNA was harvested from cells using Purelink RNA mini kit (Ambion). […] Changes in gene expression were expressed as fold changes in mRNA expression relative to the nontarget control, and normalized to GAPDH mRNA expression, using the ΔΔCt method.
(§3) HEK293T cells stably expressing dCas9-KRAB GFP were seeded in 6-well plates at a density of 600,000 cells/well in DMEM-HG with 10% FBS. […] Subsequently each sample was then run through taqman qPCR using primers for TNFRSF1A or IL1R1 and housekeeping gene GAPDH to quantify downregulation of each gene by each guide. Gene downregulation was quantified using the ΔΔCt method to characterize fold change relative non-target gRNA expressing cells.

Data set [4] relates to IL1R1. As to the kind of experiment: Guide RNA screening in HEK293T cells (qPCR), IL1R1. Type of data set: cell-based, human. The following applies: HEK293T cells expressing dCas9-KRAB, 48 hours post transfection, relative to non-target gRNA.
Excerpt: as §1, §2, §3

In data set [5] the target is AKAP 150 (rat) (UniProt P24587). As to the kind of experiment: cell-based or functional assay.
Data set [6] addresses human IL-6 (human) (UniProt P05231). The experiment in a line: cell-based or functional assay.
Sequence of UniProt P05231 (P05231 30-212 limits assumed): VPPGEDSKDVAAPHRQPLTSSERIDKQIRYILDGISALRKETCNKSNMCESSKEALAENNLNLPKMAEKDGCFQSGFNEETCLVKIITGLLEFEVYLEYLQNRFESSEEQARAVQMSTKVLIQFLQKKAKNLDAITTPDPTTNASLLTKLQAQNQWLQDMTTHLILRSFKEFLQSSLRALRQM

Sequence of UniProt P24587 (P24587 whole entry): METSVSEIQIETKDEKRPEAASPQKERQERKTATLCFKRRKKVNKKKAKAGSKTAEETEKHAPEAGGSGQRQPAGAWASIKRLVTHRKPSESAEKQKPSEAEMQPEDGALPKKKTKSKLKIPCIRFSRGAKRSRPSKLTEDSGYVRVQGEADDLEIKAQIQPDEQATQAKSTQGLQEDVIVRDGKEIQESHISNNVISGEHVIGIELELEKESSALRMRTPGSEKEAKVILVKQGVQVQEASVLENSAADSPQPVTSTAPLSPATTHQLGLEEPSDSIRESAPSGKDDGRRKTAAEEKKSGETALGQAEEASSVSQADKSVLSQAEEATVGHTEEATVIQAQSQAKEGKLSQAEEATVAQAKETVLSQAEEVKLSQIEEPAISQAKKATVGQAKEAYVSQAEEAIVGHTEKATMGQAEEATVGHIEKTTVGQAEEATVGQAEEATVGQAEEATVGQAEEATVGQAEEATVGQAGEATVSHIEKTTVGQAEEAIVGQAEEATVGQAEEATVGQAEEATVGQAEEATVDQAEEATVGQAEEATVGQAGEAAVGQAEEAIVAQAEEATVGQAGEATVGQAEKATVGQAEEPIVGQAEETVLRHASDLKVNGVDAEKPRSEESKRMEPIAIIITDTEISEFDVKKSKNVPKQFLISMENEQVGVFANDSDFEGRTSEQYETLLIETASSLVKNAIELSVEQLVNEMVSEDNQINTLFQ

In the case of “5′-AUAAGCGUCCGACACAUGAU-3′ (expressed or natural sequence) [gRNA 4 for TNFR1, 82]”, the “TNFR1 knockdown in NP cells” value in data set [1] (with dCas9-KRAB) is 55%; in data set [1] (with dCas9 alone), “no knockdown”. Take “5′-CAGUGUUGCAACAGCGGGAC-3′ (expressed or natural sequence) [gRNA 1 for TNFR1, 79]”: the “NF-κB activity at lowest dose” value in data set [2] (0.15 ng/mL TNF-α) is given as “no significant increase in NF-κB activity”. Besides, in data set [2] (24 hours of dosing with 0, 0.15, 1, and 10 ng/mL TNF-α), the “decreases in NF-κB activity” value is “up to 95%”. Further, the TNFR1 gene downregulation result in data set [3] is recorded as “up to 87%”. Regarding “5′-GGAGUCGCCAACUCAAUUCG-3′ (expressed or natural sequence) [gRNA 1 for IL1R1, 84]”, the IL1R1 gene downregulation in data set [4] is 67%. “AKAP inhibitor peptide St-Ht31 (Promega)” registered a percentage of neurons firing at 39° C. in degenerative IVD conditioned media in data set [5] of 15.5%. Still for that read-out and setting: the figure for control peptide St-Ht31P (Promega) is 61.9%. In data set [6], “mouse isotype control antibody (Life Technologies)” displayed a T50 of neuron firing (Boltzmann fit) of 38.2 ° C and a maximum firing response of DRG neurons of 66%.

The values are drawn from patent publication US10954513B2, “RNA-guided transcriptional regulation and methods of using the same for the treatment of back pain” (UNIVERSITY OF UTAH RESEARCH FOUNDATION, priority 2015, dated 2021).
